Assay results taken from ChEMBL document CHEMBL1140246, “Synthesis of cationic beta-vinyl substituted meso-tetraphenylporphyrins and their in vitro activity against herpes simplex virus type 1” (2005).

Key:
Vero [1] = test: Photocytotoxicity was evaluated on the cell growth inhibition using Vero cells were at the concentration of 0.5 uM after 48 hr of incubation; type: functional, Chlorocebus sabaeus
Vero [2] = test: Photocytotoxicity was evaluated on the cell growth inhibition using Vero cells were at the concentration of 1 uM after 48 hr of incubation; type: functional, Chlorocebus sabaeus
Human alphaherpesvirus 1 [3] = test: Photovirucidal effect against herpes simplex virus type 1 with no irradiation time with white light of 50 mW/cm2; type: functional
Vero [4] = test: Concentration required for cellular cytotoxicity against Vero cells
Human alphaherpesvirus 1 [5] = test: Photostability against herpes simplex virus type 1 after 1 min of irradiation with total light dose of 3 mW/cm**2; type: functional
Human alphaherpesvirus 1 [6] = test: Photostability against herpes simplex virus type 1 after 15 min of irradiation with total light dose of 45 mW/cm**2; type: functional
Vero [7] = test: Photocytotoxicity was evaluated on the cell growth inhibition using Vero cells were at the concentration of 0.1 uM after 48 hr of incubation; type: functional, Chlorocebus sabaeus
Vero [8] = test: Photocytotoxicity was evaluated on the cell growth inhibition using Vero cells were at the concentration of 10 uM after 48 h of incubation; type: functional, Chlorocebus sabaeus
Human alphaherpesvirus 1 [9] = test: Photovirucidal effect against herpes simplex virus type 1 after 15 mins of irradiation time with white light of 50 mW/cm2; type: functional
Vero [10] = test: Photocytotoxicity was evaluated on the cell growth inhibition using Vero cells were at the concentration of 0.25 uM after 48 hr of incubation; type: functional, Chlorocebus sabaeus
Human alphaherpesvirus 1 [11] = test: Photostability against herpes simplex virus type 1 after 5 min of irradiation with total light dose of 15 mW/cm**2; type: functional
Vero [12] = test: Photocytotoxicity was evaluated on the cell growth inhibition using Vero cells were at the concentration of 20 uM after 48 hr of incubation; type: functional, Chlorocebus sabaeus
Vero [13] = test: Photocytotoxicity was evaluated on the cell growth inhibition using Vero cells were at the concentration of 5 uM after 48 hr of incubation; type: functional, Chlorocebus sabaeus
Human alphaherpesvirus 1 [14] = test: Photovirucidal effect against herpes simplex virus type 1 after 5 mins of irradiation time with white light of 50 mW/cm2; type: functional
Human alphaherpesvirus 1 [15] = test: Photostability against herpes simplex virus type 1 after 10 min of irradiation with total light dose of 30 mW/cm**2; type: functional
Human alphaherpesvirus 1 [16] = test: Photostability against herpes simplex virus type 1 after 3 min of irradiation with total light dose of 9 mW/cm**2; type: functional
Vero [17] = test: Photocytotoxicity was evaluated on the cell growth inhibition using Vero cells were at the concentration of 10 uM after 48 hr of incubation; type: functional, Chlorocebus sabaeus
Vero [18] = test: Photocytotoxicity was evaluated on the cell growth inhibition using Vero cells were at the concentration of 20 uM after 48 h of incubation; type: functional, Chlorocebus sabaeus

Q: With `C[n+]1ccccc1/C=C/c1cc2[nH]c1c(-c1ccccc1)c1nc(c(-c3ccccc3)c3nc(c(-c4ccccc4)c4ccc([nH]4)c2-c2ccccc2)C=C3)C=C1.[Cl-]` as the molecule, how does the Viability (Vero [1]) read?
A: 101%

Q: What about the Viability (Vero [2]) of the same molecule?
A: 95.3%

Q: And the Virus inactivation (Human alphaherpesvirus 1 [3])?
A: 27.8%

Q: What about the CC50 (Vero [4]) of the same molecule?
A: 13.7 µM

Q: And the Intensity (Human alphaherpesvirus 1 [5])?
A: 100%

Q: And the Intensity (Human alphaherpesvirus 1 [6])?
A: 83%

Q: And the Viability (Vero [7])?
A: 104.8%

Q: What about the Viability (Vero [8]) of the same molecule?
A: 69%

Q: What about the Virus inactivation (Human alphaherpesvirus 1 [9]) of the same molecule?
A: 99.61%

Q: And the Viability (Vero [10])?
A: 103.3%

Q: And the Intensity (Human alphaherpesvirus 1 [11])?
A: 93%

Q: What about the Viability (Vero [12]) of the same molecule?
A: 18.8%

Q: And the Viability (Vero [13])?
A: 84.6%

Q: And the Virus inactivation (Human alphaherpesvirus 1 [14])?
A: 96.98%

Q: And the Intensity (Human alphaherpesvirus 1 [15])?
A: 88%

Q: What about the Intensity (Human alphaherpesvirus 1 [16]) of the same molecule?
A: 94%

Q: `C[n+]1ccc(/C=C/c2cc3[nH]c2c(-c2ccccc2)c2nc(c(-c4ccccc4)c4nc(c(-c5ccccc5)c5ccc([nH]5)c3-c3ccccc3)C=C4)C=C2)cc1.[Cl-]` was tested. Which Viability (Vero [1]) did it give?
A: 98.3%

Q: And the Viability (Vero [2])?
A: 97.3%

Q: What about the CC50 (Vero [4]) of the same molecule?
A: 13.5 µM

Q: What about the Intensity (Human alphaherpesvirus 1 [5]) of the same molecule?
A: 100%

Q: And the Intensity (Human alphaherpesvirus 1 [6])?
A: 91%

Q: And the Viability (Vero [7])?
A: 104.5%

Q: What about the Virus inactivation (Human alphaherpesvirus 1 [9]) of the same molecule?
A: 48.99%

Q: What about the Viability (Vero [10]) of the same molecule?
A: 99.9%

Q: What about the Intensity (Human alphaherpesvirus 1 [11]) of the same molecule?
A: 96%

Q: What about the Viability (Vero [17]) of the same molecule?
A: 62%

Q: What about the Viability (Vero [13]) of the same molecule?
A: 90.8%

Q: What about the Viability (Vero [18]) of the same molecule?
A: 28%

Q: And the Virus inactivation (Human alphaherpesvirus 1 [14])?
A: 0%

Q: And the Intensity (Human alphaherpesvirus 1 [15])?
A: 93%

Q: What about the Intensity (Human alphaherpesvirus 1 [16]) of the same molecule?
A: 99%
